This passage reports IC50 and Activity results from ChEMBL document CHEMBL3286221, “Design and synthesis of novel 1,2,3-triazole derivatives of coronopilin as anti-cancer compounds” (Eur J Med Chem, 2014).

One test deals with HeLa. In words: Cytotoxicity against human HeLa cells after 48 hrs by sulforhodamine B assay. It counts as functional, cell-based.
Another test relates to THP-1. Kind of test: Cytotoxicity against human THP1 cells after 48 hrs by sulforhodamine B assay. To be noted: THP-1, 48 h. It counts as functional, cell-based.
The next test concerns A549. Kind of test: Cytotoxicity against human A549 cells after 48 hrs by sulforhodamine B assay. The format is functional, cell-based. As to conditions: A549, 48 h.
The next test relates to MCF7. Kind of test: Cytotoxicity against human MCF7 cells after 48 hrs by sulforhodamine B assay. As to conditions: MCF7, 48 h. The format is functional, cell-based.
The nature of test [1]: Cytotoxicity against human HCT15 cells after 48 hrs by sulforhodamine B assay. The format is functional, cell-based. To be noted: HCT-15, 48 h.
Test [2] deals with PC-3. Kind of test: Cytotoxicity against human PC3 cells after 48 hrs by sulforhodamine B assay. It counts as functional, cell-based. As to conditions: PC-3, 48 h.
The subject of test [3] is PC-3. Kind of test: Cell cycle arrest in human PC3 cells assessed as accumulation at M phase at 5 uM after 24 hrs by propidium iodide staining-based flow cytometric analysis (reference value: 3%). The format is functional.
In test [4] the test system is PC-3. In words: Cell cycle arrest in human PC3 cells assessed as accumulation at sub-G1 phase at 5 uM after 24 hrs by propidium iodide staining-based flow cytometric analysis (reference value: 13.1%). The format is functional.
Test [5] relates to PC-3. Kind of test: Cell cycle arrest in human PC3 cells assessed as accumulation at G0/G1 phase at 5 uM after 24 hrs by propidium iodide staining-based flow cytometric analysis (reference value: 68.2%). The format is functional.
Test [6] deals with PC-3. In words: Cell cycle arrest in human PC3 cells assessed as accumulation at S phase at 5 uM after 24 hrs by propidium iodide staining-based flow cytometric analysis (reference value: 8.5%). The format is functional.

`C=C1C(=O)O[C@@H]2[C@H]1CC[C@H](C)[C@]1(O)[C@@H](n3cc(COc4ccc5ccccc5c4)nn3)CC(=O)[C@@]21C`: the IC50 with HeLa amounted to 7.3 µM; with THP-1, 25 µM; with A549, 9 µM; in the test on MCF7 it was 24 µM; in [1], 20 µM; in the test on PC-3 [2] it was 3.6 µM.
Consider `C=C1C(=O)O[C@@H]2[C@H]1CC[C@H](C)[C@]1(O)[C@@H](n3cc(COc4ccc(C(C)C)cc4C)nn3)CC(=O)[C@@]21C`, for which the IC50 worked out at 6.8 µM in the test with HeLa; 33 µM in the test with THP-1; 21 µM in the test on A549; 32 µM in the test on MCF7; 45 µM in test [1]; 7.5 µM with PC-3 [2].
For the molecule `C=C1C(=O)O[C@@H]2[C@H]1CC[C@H](C)[C@]1(O)[C@@H](n3cc(CNn4ccc5cc(Br)ccc54)nn3)CC(=O)[C@@]21C`, the IC50 in the test with HeLa was 7.2 µM; in the test on A549 it was 100 µM; in the test on MCF7 it was 4.5 µM; in test [1] it was 26 µM.
As to `COc1cccc2c1C(=O)c1c(O)c3c(c(O)c1C2=O)C[C@@](O)(C(=O)CO)C[C@@H]3O[C@H]1C[C@H](N)[C@H](O)[C@H](C)O1` [DOXORUBICIN], in the test on MCF7, the IC50 is 0.5 µM.
For the molecule `C=C1C(=O)O[C@@H]2[C@H]1CC[C@H](C)[C@]1(O)[C@@H](n3cc(CNc4ccccc4F)nn3)CC(=O)[C@@]21C`, the IC50 came to 3.7 µM with HeLa; 34 µM with A549; 5.1 µM with MCF7; 100 µM in test [1]; 3.3 µM with PC-3 [2].
For the molecule `C=C1C(=O)O[C@@H]2[C@H]1CC[C@H](C)[C@]1(O)[C@@H](n3cc(COc4ccc(C)cc4)nn3)CC(=O)[C@@]21C`, the IC50 in the test on HeLa amounted to 100 µM; in the test with THP-1, 26 µM; in the test on A549, 21 µM; with MCF7 it was 4.2 µM; in test [1] it was 39 µM; with PC-3 [2] it was 7.6 µM.
With `C=C1C(=O)O[C@@H]2[C@H]1CC[C@H](C)[C@]1(O)[C@@H](n3cc(CNc4ccccc4Br)nn3)CC(=O)[C@@]21C`, the IC50 in the test with HeLa is 4.8 µM; with THP-1 it was 100 µM; in the test on A549, 100 µM; in the test with MCF7, 4.2 µM; in test [1], 20 µM.
With `C=C1C(=O)O[C@@H]2[C@H]1CC[C@H](C)[C@]1(O)C=CC(=O)[C@@]21C` [PARTHENIN], the IC50 in the test with THP-1 came out at 46.2 µM; with A549 it was 37.6 µM; in the test on MCF7, 40.2 µM; in test [1], 35.3 µM; with PC-3 [2], 43.1 µM.
Turning to `C=C1C(=O)O[C@@H]2[C@H]1CC[C@H](C)[C@]1(O)[C@@H](n3cc(COc4ccc(C(F)(F)F)cc4)nn3)CC(=O)[C@@]21C`, the half-maximal inhibitory concentration (IC50) amounted to 3.5 µM in the test on HeLa; 48 µM with THP-1; 3.8 µM in the test on A549; 13 µM in the test on MCF7; 100 µM in test [1]; 6.4 µM in the test on PC-3 [2].
As for `C=C1C(=O)O[C@@H]2[C@H]1CC[C@H](C)[C@]1(O)[C@@H](n3cc(COc4ccccc4C)nn3)CC(=O)[C@@]21C`, the IC50 in the test with HeLa is 8.4 µM; in the test on THP-1, 3.8 µM; with A549 it was 6.2 µM; with MCF7 it was 3.7 µM; in test [1], 5.5 µM; in the test with PC-3 [2] it was 10 µM.
In the case of `C=C1C(=O)O[C@@H]2[C@H]1CC[C@H](C)[C@]1(O)[C@@H](n3cc(CCC)nn3)CC(=O)[C@@]21C`, the IC50 in the test on HeLa stood at 8.4 µM; in the test on A549, 12 µM; in the test on MCF7, 14 µM; in [1], 5.5 µM; with PC-3 [2], 100 µM.
As to `C=C1C(=O)O[C@@H]2[C@H]1CC[C@H](C)[C@]1(O)[C@@H](n3cc(CNc4ccccc4OC)nn3)CC(=O)[C@@]21C`, the half-maximal inhibitory concentration (IC50) was found to be 28 µM in the test with HeLa; 100 µM in the test with THP-1; 23 µM in the test on A549; 28 µM with MCF7; 15 µM in [1].
`CO[C@@]12[C@H](COC(N)=O)C3=C(C(=O)C(C)=C(N)C3=O)N1C[C@@H]1N[C@@H]12` [MITOMYCIN] yielded a 50% inhibitory concentration (IC50) in test [1] of 0.5 µM.
As for `C=C1C(=O)O[C@@H]2[C@H]1CC[C@H](C)[C@]1(O)[C@@H](n3cc(COc4ccccc4Br)nn3)CC(=O)[C@@]21C`, the IC50 worked out at 4.8 µM in the test on HeLa; 19 µM with THP-1; 8.8 µM with A549; 3.4 µM in the test with MCF7; 12 µM in test [1]; 5.6 µM in the test with PC-3 [2].
For the molecule `C=C1C(=O)O[C@@H]2[C@H]1CC[C@H](C)[C@]1(O)[C@@H](n3cc(CCc4ccccc4)nn3)CC(=O)[C@@]21C`, the IC50 was found to be 16 µM in the test with HeLa; 100 µM with THP-1; 5.8 µM in the test with A549; 16 µM in the test with MCF7; 4.3 µM in test [1].
Regarding `C=C1C(=O)O[C@@H]2[C@H]1CC[C@H](C)[C@]1(O)[C@@H](n3cc(CNc4ccc(F)cc4)nn3)CC(=O)[C@@]21C`, the IC50 worked out at 15 µM with HeLa; 100 µM in the test with THP-1; 100 µM with A549; 15 µM with MCF7; 6.5 µM in test [1].
With `C=C1C(=O)O[C@@H]2[C@H]1CC[C@H](C)[C@]1(O)[C@@H](n3cc(COc4ccc(Br)cc4)nn3)CC(=O)[C@@]21C`, the IC50 turned out to be 6.5 µM in the test with HeLa; 10 µM in the test on THP-1; 14 µM in the test with A549; 16 µM in the test with MCF7; 48 µM in [1]; 4.7 µM in the test with PC-3 [2].
On to `C=C1C(=O)O[C@@H]2[C@H]1CC[C@H](C)[C@]1(O)[C@@H](n3cc(COc4ccccc4F)nn3)CC(=O)[C@@]21C`, for which the half-maximal inhibitory concentration (IC50) in the test with HeLa was 3.9 µM; in the test on THP-1, 25 µM; in the test on A549 it was 6.3 µM; with MCF7 it was 4.3 µM; in [1] it was 23 µM; with PC-3 [2] it was 4.3 µM.
With `C=C1C(=O)O[C@@H]2[C@H]1CC[C@H](C)[C@]1(O)[C@@H](n3cc(COc4ccc(Cl)cc4)nn3)CC(=O)[C@@]21C`, the IC50 in the test on HeLa was determined as 3.6 µM; with THP-1, 12 µM; in the test with A549, 4.1 µM; with MCF7 it was 7 µM; in [1], 27 µM; with PC-3 [2] it was 5.2 µM.
For `CC[C@@]1(O)C(=O)OCc2c1cc1n(c2=O)Cc2cc3ccccc3nc2-1` [CAMPTOTHECIN], the Activity in the test on PC-3 [3] amounted to 4.76%; in the test on PC-3 [4] it was 60.44%; with PC-3 [5], 30.17%; with PC-3 [6], 4.94%.
With `C=C1C(=O)O[C@@H]2[C@H]1CC[C@H](C)[C@]1(O)[C@@H](n3cc(CNc4ccc(COC(F)(F)F)cc4)nn3)CC(=O)[C@@]21C`, the IC50 was 17 µM in the test with HeLa, 23 µM in the test on A549, 17 µM with MCF7 and 100 µM in [1].
`O=c1[nH]cc(F)c(=O)[nH]1` [FLUOROURACIL]: the IC50 in the test on HeLa is 4.9 µM; in test [1] it was 4.5 µM.
Take `C=C1C(=O)O[C@@H]2[C@H]1CC[C@H](C)[C@]1(O)[C@@H](n3cc(CNc4ccccc4C)nn3)CC(=O)[C@@]21C`: the IC50 amounted to 3.9 µM in the test on HeLa; 17 µM in the test on THP-1; 23 µM with A549; 15 µM in the test on MCF7; 8.5 µM in [1]; 4.6 µM in the test on PC-3 [2].
